Read-outs that look alike come from different tables or passages of the source. Bounds are passed on as bounds.

One test deals with MCF-7. Description: SRB antiproliferative assay, MCF-7. It is filed as cell-based, human. The method, then: Initially, the human breast cancer cell line MCF-7 was used in a prescreen analysis of the anticancer activity of 3-arylisoquinolinones. The cells were treated with serial concentrations of compounds 2–8 for 96 h prior to the assessment of proliferation using the sulforhodamine B (SRB) assay. For each compound, the concentration required to inhibit cell growth by 50% compared to that of the untreated control cells (IC50) was determined (Table 1).
(§1) All cell lines used in the study were human-derived and purchased from ATCC (Manassas, USA). Breast adenocarcinoma MCF-7 and MDA-MB-231 cell lines were cultured in DMEM. Hepatocellular carcinoma HepG2 and SNU423 cell lines were grown in MEME combined with 1% (v/v) nonessential amino acids and RPMI supplemented with 2 mM glutamine, respectively. Lung adenocarcinoma A549 and colorectal carcinoma HCT116 cells were grown in RPMI (+2 mM glutamine). All previous media were further supplemented with 10% heat-inactivated fetal bovine serum. The immortalized, normal liver THLE-3 cells were grown in BEGM (Lonza, Cat# CC-3170) onto precoated vessels according to ATCC’s instructions. Human umbilical vein endothelial cells (HUVECs) were cultured in EGM-2 (Lonza, Cat# CC-3162). All of the cells were maintained at 37 °C and 5% CO2 in a humidified incubator.
(§2) Screening of the antiproliferative activity of 3-arylisoquinolinones was performed using the SRB assay as previously described.[56] Exponentially growing HepG2, SNU423, MDA-MB-231, MCF-7, A549, HCT116, THLE-3, and HUVECs were seeded in 96-well plates at densities of 3000, 2000, 1500, 2500, 1000, 1000, 4000, and 4000 cells/well, respectively. These densities were experimentally selected so that the DMSO-treated cells (control) were approximately 80–90% confluent at the assay’s endpoint, and their optical density (OD) values fell within the assay’s linear range. After overnight incubation, the cells were treated with a range of concentrations of the respective compounds for 96 h, 24 h followed by 72 h compound-free incubation or 24 h (for HUVECs only). After treatment, cell monolayers were fixed with 10% (w/v) trichloroacetic acid for 1 h at 4 °C, washed, and dried. Then, the cells were exposed to 0.4% (w/v) SRB dye (prepared in 1% (v/v) acetic acid; Botium, Cat# 80100) for 15 min followed by several 1% acetic acid washing and then drying. Finally, the cellular protein-bound SRB was thoroughly dissolved in 10 mM Tris base, and the OD values were read at 510 nm using a plate reader (μQuant Microplate Spectrophotometer, Biotek, U.K.) coupled with Gen5 software (BioTek, U.K.). Compound-induced changes in cell growth were inferred from changes in OD values. Cell growth was calculated using the following formula: cell growth (%) = (ODtest/ODcontrol) × 100.

The test system of test [1] is panel of 59 cancer cell lines. Briefly: NCI one-dose screen. Type of test: cell-based. As to conditions: 10 µM, 48 h, SRB. The method, then: (§3) In light of this substantial change in activity between the meta and para compounds, a more comprehensive analysis of the antiproliferative activity was performed for the meta-/para-3-arylisoquinolinone pairs 2 and 3, 4, and 5, as well as 6. A panel of breast (MDA-MB-231), liver (HepG2, SNU423), lung (A549), and colon (HCT116) cancer cell lines were treated with the five 3-arylisoquinolinone analogs for 96 h followed by the SRB assay. The dose–response curves (including those for MCF-7) are presented in Figure S22, and their relevant IC50 values are listed in Table 1. […] The differential activity between meta- and para-3-arylisoquinolinones was reproduced in the National Cancer Institute (NCI) one-dose screen using a panel of 59 cancer cell lines (Figure S23).
Figure S23. NCI One-Dose Mean graphs for 3-arylisoquinolinones 4, 5 […]
In NCI one-dose screen, the 59 cell lines (classified into 9 groups) were exposed to 4, 5 and 7 at a single dose of 10 µM for 48 h followed by SRB assay. The one-dose data were reported as a mean graph of the growth percentage of treated cells, as relative to the cell number of both the no-drug control and the zero time (before adding the test agent). Values between 0 and 100 indicate growth inhibition, whereas values less than 0 indicate lethality. For instance, a value of 40 means 60% growth inhibition; 0, no growth throughout the experiment; -40, 40% lethality; and - 100, all cells are dead.1
A) One-dose mean graph for 3-arylisoquinolinone 4 (NSC number 795055)

Details of test [2]: method as in PMID 21127197. As to conditions: after compound washout; cited from earlier work.
The test system of a further test is MDA-MB-231. Description: SRB antiproliferative assay, MDA-MB-231. Type of test: cell-based, human. The method, then:
as §3, §1, §2

A further test deals with HepG2. Description: SRB antiproliferative assay, HepG2. It is filed as cell-based, human. The method, then: as §3, §1, §2
The test system of a further test is SNU423. Briefly: SRB antiproliferative assay, SNU423. It is filed as cell-based, human. How it is done:
as §3, §1
as §2, with “After overnight incubation, the cells were treated with a range of concentrations of the respective compounds for 96 h, 24 h followed by 72 h compound-free incubation or 24 h (for HUVECs only).” left out

The subject of a further test is A549. Description: SRB antiproliferative assay, A549. Type of test: cell-based, human. How it is done:
as §3, §1, §2

Another test relates to HCT116. Briefly: SRB antiproliferative assay, HCT116. Type of test: cell-based, human. How it is done:
as §3, §1, §2

Another test has as its system THLE-3. Description: SRB antiproliferative assay, normal liver cell line THLE-3. It is filed as cell-based, human. The note with it: 24 h +drug/72 h –drug treatment, read-out: mean IC50 ± SEM, THLE-3. An excerpt:
In the preceding experiments, the cells were continuously exposed to the compounds prior to scoring for the antiproliferative/cytotoxic effects. […] The meta compounds were also examined for the presence of differential antiproliferative activity against cancer cells over the normal liver cell line THLE-3. […] Moreover, the sensitivity of the six cancer cell lines toward compounds 2, 4, and 6 was markedly greater than that of THLE-3 cells.
All cell lines used in the study were human-derived and purchased from ATCC (Manassas, USA). Breast adenocarcinoma MCF-7 and MDA-MB-231 cell lines were cultured in DMEM. Hepatocellular carcinoma HepG2 and SNU423 cell lines were grown in MEME combined with 1% (v/v) nonessential amino acids and RPMI supplemented with 2 mM glutamine, respectively. Lung adenocarcinoma A549 and colorectal carcinoma HCT116 cells were grown in RPMI (+2 mM glutamine). […]
Screening of the antiproliferative activity of 3-arylisoquinolinones was performed using the SRB assay as previously described.[56] […] Finally, the cellular protein-bound SRB was thoroughly dissolved in 10 mM Tris base, and the OD values were read at 510 nm using a plate reader (μQuant Microplate Spectrophotometer, Biotek, U.K.) coupled with Gen5 software (BioTek, U.K.). […] Cell growth was calculated using the following formula: cell growth (%) = (ODtest/ODcontrol) × 100.

The next test has as its system HepG2 cells. Briefly: Clonogenic assay. As to conditions: 14 days. It is filed as cell-based, human. The method, then: HepG2 cells were treated with varying concentrations of 2–6 added once and kept for 14 days before counting colonies and calculating surviving fraction (Figure 2).
The ability of potential anticancer agents to prevent unlimited cell division and induce reproductive cell death was assessed using clonogenic assay as previously described.[57] In brief, HepG2 cells were seeded into six-well plates at a density of 1000 single cells/well and incubated for 10–12 h to adhere. The cells were then treated with DMSO (control) or a range of concentrations of 2–6 for 14 days. Afterward, the produced colonies were washed with phosphate-buffered saline (PBS), fixed with 70% ethanol for 20 min, and stained with 0.5% (w/v) methylene blue (prepared in 70% methanol). Following washing with water and drying, colonies (≥50 cells) were manually counted. The colony-forming efficiency (CFE) of cells was calculated by dividing the number of colonies formed by the number of cells seeded for each condition. The surviving fraction was determined by dividing the CFE of the treated cells by CFE of the control cells. A survival curve was generated by plotting the log of drug concentrations versus surviving fraction.

The subject of another test is purified bovine tubulin. Description: Cell-free tubulin polymerization assay. Type of test: biochemical. As to conditions: 10 μM, compared to DMSO control. From the text:
Experimentally, the direct interaction of 4 with tubulin was investigated in a cell-free system using a tubulin polymerization assay. […] In control samples, α- and β-tubulin subunits were able to heterodimerize and assemble into microtubules in a time-dependent manner as indicated by increasing absorbance values over time. […] This indicates the incidence of fast polymerization associated with the formation of a denser microtubule mass. […] It is worth mentioning that microtubule dynamics can be potently altered by microtubule-stabilizing or -destabilizing compounds at doses 10- to 100-fold lower than those required for increasing or decreasing the microtubule polymer mass.[31]
The cell-free tubulin polymerization experiment was performed using the Tubulin Polymerization Assay Kit according to the manufacturer’s instructions (Millipore, Cat# 17-10194). The light absorbed by microtubules, which were formed upon tubulin polymerization, is directly proportional to the polymer mass. […] Immediately, the plate was placed in a 37 °C-prewarmed plate reader (BMG LABTECH FLUOstar Omega, Germany) and the absorbance was measured at 1 min intervals for 60 min at a wavelength of 350 nm. The delta absorbance (ΔA) was calculated by subtracting the absorbance values of zero time from those of the subsequent time points and then plotted versus time.

[3] abbreviates: 96 h treatment, mean ± SEM, read-out: IC50 MCF-7 (prescreen).

In the case of “7-Fluoro-3-(4-methoxyphenyl)isoquinolin-1(2H)-one [compound 7]”, the IC50 with MCF-7 (setting [3]) is above 50000 nM. Besides, the “inhibition of growth in NCI one-dose screen” value in test [1] is recorded as “less active”.
As for `CN[C@H]1CCc2cc(OC)c(OC)c(OC)c2-c2ccc(OC)c(=O)cc21` [colcemid], the “reversibility of mitotic blockade” value in test [2] is listed as “highly reversible”.
Turning to `COc1cc2c(c(OC)c1OC)-c1ccc(OC)c(=O)cc1[C@@H](NC(C)=O)CC2` [colchicine], the “reversibility of mitotic blockade” value in test [2] is listed as “irreversible”.
For the compound `COc1cccc(-c2cc3cc(F)ccc3c(=O)[nH]2)c1` [compound 2, 6-Fluoro-3-(3-methoxyphenyl)isoquinolin-1(2H)-one], the IC50 is 1430 ± 300 nM with MCF-7 (24 h +drug/72 h –drug treatment, read-out: mean IC50 ± SEM, MCF-7); 750 ± 130 nM with MCF-7 (setting [3]); 190 ± 40 nM in the test on MDA-MB-231 (24 h +drug/72 h –drug treatment, read-out: mean IC50 ± SEM, MDA-MB-231); 170 ± 10 nM in the test on MDA-MB-231 (96 h treatment, mean ± SEM, read-out: IC50 MDA-MB-231); 2.33 ± 0.22 µM in the test on HepG2 (24 h +drug/72 h –drug treatment, read-out: mean IC50 ± SEM, HepG2); 3.12 ± 0.34 µM in the test with HepG2 (96 h treatment, mean ± SEM, read-out: IC50 HepG2). In addition, the IC50 is 580 ± 40 nM with SNU423 (24 h +drug/72 h –drug treatment, read-out: mean IC50 ± SEM, SNU423); 410 ± 30 nM with SNU423 (96 h treatment, mean ± SEM, read-out: IC50 SNU423); 830 ± 170 nM with A549 (24 h +drug/72 h –drug treatment, read-out: mean IC50 ± SEM, A549); 370 ± 10 nM in the test on A549 (96 h treatment, mean ± SEM, read-out: IC50 A549); 200 ± 10 nM with HCT116 (24 h +drug/72 h –drug treatment, read-out: mean IC50 ± SEM, HCT116); 220 ± 20 nM with HCT116 (96 h treatment, mean ± SEM, read-out: IC50 HCT116). For the same compound, the IC50 with THLE-3 was above 25 µM. For the same compound, the colony formation entry in the test with HepG2 cells (0.5 or 1 μM) is listed as “No colonies were apparent”.
As for `COc1ccc(-c2cc3cc(F)ccc3c(=O)[nH]2)cc1` [compound 3, 6-Fluoro-3-(4-methoxyphenyl)isoquinolin-1(2H)-one], the IC50 with MCF-7 (Homo sapiens, MCF7, 96 h treatment, mean ± SEM, read-out: IC50 MCF-7 (prescreen)) is above 50000 nM; in the test on MDA-MB-231 (Homo sapiens, MDA-MB-231, 96 h treatment, mean ± SEM, read-out: IC50 MDA-MB-231) it was above 50000 nM; in the test on HepG2 (Homo sapiens, HepG2, 96 h treatment, mean ± SEM, read-out: IC50 HepG2), above 50 µM; with SNU423 (Homo sapiens, SNU-423, 96 h treatment, mean ± SEM, read-out: IC50 SNU423), above 50000 nM; in the test on A549 (Homo sapiens, A549, 96 h treatment, mean ± SEM, read-out: IC50 A549), above 50000 nM; with HCT116 (Homo sapiens, HCT-116, 96 h treatment, mean ± SEM, read-out: IC50 HCT116), above 50000 nM. The compound further yielded a surviving fraction with HepG2 cells (concentrations as high as 20 μM) of 0.5.
As to `COC(=O)Nc1nc2cc(C(=O)c3cccs3)ccc2[nH]1` [nocodazole], the “reversibility of mitotic blockade” value in test [2] is reported as “highly reversible”.
On to `CC(=O)O[C@H]1C(=O)[C@@]2(C)[C@H]([C@H](OC(=O)c3ccccc3)[C@]3(O)C[C@H](OC(=O)[C@H](O)[C@@H](NC(=O)c4ccccc4)c4ccccc4)C(C)=C1C3(C)C)[C@]1(OC(C)=O)CO[C@@H]1C[C@@H]2O` [paclitaxel, reference compound], for which the “effect on tubulin polymerization (polymerizing control)” value with purified bovine tubulin was “higher absorbance values briefly after the onset of the polymerization process”.
Regarding `CC[C@]1(O)C[C@H]2CN(CCc3c([nH]c4ccccc34)[C@@](C(=O)OC)(c3cc4c(cc3OC)N(C=O)[C@H]3[C@@](O)(C(=O)OC)[C@H](OC(C)=O)[C@]5(CC)C=CCN6CC[C@]43[C@@H]65)C2)C1` [vincristine], the “reversibility of mitotic blockade” value in [2] is given as “irreversible”.

The values above are taken from PMC9098178, “SAR of Novel 3-Arylisoquinolinones: meta-Substitution on the Aryl Ring Dramatically Enhances Antiproliferative Activity through Binding to Microtubules” (Journal of Medicinal Chemistry, 2022).
